From patent publication US11820766B2, “Monoacylglycerol lipase modulators” (Janssen Pharmaceutica NV, priority 2018, dated 2023) come the findings set out here.

The IC50 is the concentration at which inhibition is half-maximal. The low end stands for greater potency in that assay, the high end for weaker potency in that assay.

For the first experiment, the target named is T1, human MGL from HeLa cells (Homo sapiens, UniProt Q99685).
T1 construct: combining endogenously expressed MGL from HeLa cells with test compounds; endogenous in cells; host or cells: HeLa cells / cell homogenates
T1 sequence (Q99685 1-303): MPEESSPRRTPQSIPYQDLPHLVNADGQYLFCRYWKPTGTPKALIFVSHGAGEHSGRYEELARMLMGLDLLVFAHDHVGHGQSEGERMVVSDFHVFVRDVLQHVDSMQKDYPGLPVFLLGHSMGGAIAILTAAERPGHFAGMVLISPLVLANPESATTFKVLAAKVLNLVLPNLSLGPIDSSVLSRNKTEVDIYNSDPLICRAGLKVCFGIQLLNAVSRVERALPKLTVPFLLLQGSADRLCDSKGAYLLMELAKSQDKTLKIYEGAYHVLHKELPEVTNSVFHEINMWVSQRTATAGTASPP
The experiment can be described thus: In vitro MGL activity assay: [glycerol-1,3-3H]-oleyl glycerol cleavage by MGL from HeLa cells. It counts as biochemical. Conditions: 300 nM [Glycerol-1,3-3H]-oleyl glycerol, one hour. An excerpt: MGL is the predominant hydrolase in HeLa cells/cell homogenates.
`Cc1cnn2cccc(C(=O)N3CCc4c(nn(C)c4-c4cc(F)c(F)c(F)c4)[C@@H]3C)c12` [Example 380, [(7S)-2,7-Dimethyl-3-(3,4,5-trifluorophenyl)-5,7-dihydro-4H-pyrazolo[3,4-c]pyridin-6-yl]-(3-methylpyrazolo[1,5-a]pyridin-4-yl)methanone]: half-maximal inhibition (IC50) required 44 nM. The compound `CC(C)Oc1cccc(-c2c3c(nn2C)[C@H](C)N(C(=O)c2ccc4ncccc4c2)CC3)c1` [Example 498, [(7S)-3-(3-Isopropoxyphenyl)-2,7-dimethyl-5,7-dihydro-4H-pyrazolo[3,4-c]pyridin-6-yl]-(6-quinolyl)methanone] displayed an IC50 of 361 nM. Against the preceding compound, the IC50 is about 8.2-fold higher. Same read-out and setting: next, `COc1cc(F)cc(-c2c3c(nn2C)[C@H](C)N(C(=O)c2nccc(OC)c2Cl)CC3)c1` [Example 614, (3-Chloro-4-methoxy-2-pyridyl)-[(7S)-3-(3-fluoro-5-methoxy-phenyl)-2,7-dimethyl-5,7-dihydro-4H-pyrazolo[3,4-c]pyridin-6-yl]methanone]: 35.9 nM. On the same count and under the same terms, next, `Cc1nn2ncccc2c1C(=O)N1CCc2c(nn(C)c2-c2cc(F)c(F)c(F)c2)[C@@H]1C` [Example 442, [(7S)-2,7-Dimethyl-3-(3,4,5-trifluorophenyl)-5,7-dihydro-4H-pyrazolo[3,4-c]pyridin-6-yl]-(2-methylpyrazolo[1,5-b]pyridazin-3-yl) methanone]: 43.9 nM; `CC1c2nn(C34CC(C3)C4)c(-c3ccccc3)c2CCN1C(=O)c1cnn(C)c1C1CC1` (racemic) [Example 615, racemic-(2-(Bicyclo[1.1.1]pentan-1-yl)-7-methyl-3-phenyl-2,4,5,7-tetrahydro-6H-pyrazolo[3,4-c]pyridin-6-yl)(5-cyclopropyl-1-methyl-1H-pyrazol-4-yl)methanone]: 821 nM; `Cc1nn2ccnc(C)c2c1C(=O)N1CCc2c(nn(C)c2-c2cc(F)c(F)c(F)c2)[C@@H]1C` [Example 446, (2,4-Dimethylpyrazolo[1,5-a]pyrazin-3-yl)-[(7S)-2,7-dimethyl-3-(3,4,5-trifluorophenyl)-5,7-dihydro-4H-pyrazolo[3,4-c]pyridin-6-yl] methanone]: 34.1 nM. On the same count and under the same terms, next, `COc1ccc(-c2c3c(nn2C)[C@H](C)N(C(=O)c2ccc4ncccc4c2)CC3)cc1C` [Example 512, [(7S)-3-(4-Methoxy-3-methyl-phenyl)-2,7-dimethyl-5,7-dihydro-4H-pyrazolo[3,4-c]pyridin-6-yl]-(6-quinolyl)methanone]: 185 nM. `Cc1ccc2ncc(C(=O)N3CCc4c(nn(C)c4-c4cc(F)c(F)c(F)c4)[C@@H]3C)n2c1` [Example 400, [(7S)-2,7-Dimethyl-3-(3,4,5-trifluorophenyl)-5,7-dihydro-4H-pyrazolo[3,4-c]pyridin-6-yl]-(6-methylimidazo[1,2-a]pyridin-3-yl)methanone]: it took 52.3 nM to reach half-maximal inhibition (IC50).

Staying with this experiment, now noted: 300 nM [Glycerol-1,3-3H]-oleyl glycerol, one hour incubation.
`COc1ccc(-c2c3c(nn2C)[C@H](C)N(C(=O)c2ccc4nccnc4c2)CC3)cc1F` [Example 185, (S)-(3-(3-Fluoro-4-methoxyphenyl)-2,7-dimethyl-2,4,5,7-tetrahydro-6H-pyrazolo[3,4-c]pyridin-6-yl)(quinoxalin-6-yl)methanone] had an IC50 of 386 nM. `Cc1ccc(-c2c3c(nn2C)[C@H](C)N(C(=O)c2ccc4nccnc4c2)CC3)cc1Cl` [Example 183, (S)-(3-(3-Chloro-4-methylphenyl)-2,7-dimethyl-2,4,5,7-tetrahydro-6H-pyrazolo[3,4-c]pyridin-6-yl)(quinoxalin-6-yl)methanone] showed an IC50 of 26.9 nM. `C[C@H]1c2nn(C)c(-c3cccnc3)c2CCN1C(=O)c1ccc2nccnc2c1` [Example 108, (S)-(2,7-Dimethyl-3-(pyridin-3-yl)-2,4,5,7-tetrahydro-6H-pyrazolo[3,4-c]pyridin-6-yl)(quinoxalin-6-yl)methanone] registered an IC50 of 1300 nM. The same measure, in the same setting: next, `Cn1nc2c(c1-c1ccccc1)CCN(C(=O)c1ccnc3c1ccn3C)C2` [Example 84, (1-Methyl-1H-pyrrolo[2,3-b]pyridin-4-yl)(2-methyl-3-phenyl-2,4,5,7-tetrahydro-6H-pyrazolo[3,4-c]pyridin-6-yl)methanone]: 48.3 nM; `C[C@H]1c2nn(C)c(-c3cc(F)c(F)c(F)c3)c2CCN1C(=O)c1cn(C)c2ccncc12` [Example 219, (S)-(2,7-Dimethyl-3-(3,4,5-trifluorophenyl)-2,4,5,7-tetrahydro-6H-pyrazolo[3,4-c]pyridin-6-yl)(1-methyl-1H-pyrrolo[3,2-c]pyridin-3-yl)methanone]: 28.6 nM. Compound `Cn1nc2c(c1-c1ccccc1)CCN(C(=O)c1ccn3nccc3c1)C2` [Example 73, (2-Methyl-3-phenyl-2,4,5,7-tetrahydro-6H-pyrazolo[3,4-c]pyridin-6-yl)(pyrazolo[1,5-a]pyridin-5-yl)methanone] yielded an IC50 of 2500 nM.
